Measured values: the kinase profiling compilation of Christmann-Franck et al. (2016)

Assays:
Assay in all cases: radiometric filter-binding kinase assay, Kinase HotSpot
Settings in all cases: compound 0.5 µM; ATP 10 µM
MERTK (human) = MERTK (human) (UniProt Q12866)
BMX (human) = BMX (human) (UniProt P51813)
FLT1 (human) = FLT1 (human) (UniProt P17948)
ULK2 (human) = ULK2 (human) (UniProt Q8IYT8)
NTRK2 (human) = NTRK2 (human) (UniProt Q16620)
FGFR2 (human) = FGFR2 (human) (UniProt P21802)
BRSK2 (human) = BRSK2 (human) (UniProt Q8IWQ3)
PAK3 (human) = PAK3 (human) (UniProt O75914)
Chain of PAK3 (human) (O75914 whole entry, looked up): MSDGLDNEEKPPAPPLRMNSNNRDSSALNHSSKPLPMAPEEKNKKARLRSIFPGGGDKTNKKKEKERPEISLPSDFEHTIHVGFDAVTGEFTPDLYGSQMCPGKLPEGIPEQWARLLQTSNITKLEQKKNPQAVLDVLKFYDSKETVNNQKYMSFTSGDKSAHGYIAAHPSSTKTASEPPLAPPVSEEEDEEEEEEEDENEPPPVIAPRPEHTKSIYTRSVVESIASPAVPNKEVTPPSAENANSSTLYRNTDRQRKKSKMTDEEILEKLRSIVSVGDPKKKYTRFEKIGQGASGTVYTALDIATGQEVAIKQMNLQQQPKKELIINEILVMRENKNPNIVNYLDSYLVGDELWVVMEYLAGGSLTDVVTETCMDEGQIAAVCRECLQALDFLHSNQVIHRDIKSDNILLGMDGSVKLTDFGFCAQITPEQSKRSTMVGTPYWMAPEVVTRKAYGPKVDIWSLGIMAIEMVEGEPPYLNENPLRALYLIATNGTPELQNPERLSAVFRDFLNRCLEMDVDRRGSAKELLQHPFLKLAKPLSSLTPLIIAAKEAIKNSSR

PRKCG (human) = PRKCG (human) (UniProt P05129)
GRK5 (human) = GRK5 (human) (UniProt P34947)
ULK1 (human) = ULK1 (human) (UniProt O75385)
ROCK2 (human) = ROCK2 (human) (UniProt O75116)
DSTYK (human) = DSTYK (human) (UniProt Q6XUX3)
STK33 (human) = STK33 (human) (UniProt Q9BYT3)
DYRK4 (human) = DYRK4 (human) (UniProt Q9NR20)
Chain of DYRK4 (human) (Q9NR20 whole entry, looked up): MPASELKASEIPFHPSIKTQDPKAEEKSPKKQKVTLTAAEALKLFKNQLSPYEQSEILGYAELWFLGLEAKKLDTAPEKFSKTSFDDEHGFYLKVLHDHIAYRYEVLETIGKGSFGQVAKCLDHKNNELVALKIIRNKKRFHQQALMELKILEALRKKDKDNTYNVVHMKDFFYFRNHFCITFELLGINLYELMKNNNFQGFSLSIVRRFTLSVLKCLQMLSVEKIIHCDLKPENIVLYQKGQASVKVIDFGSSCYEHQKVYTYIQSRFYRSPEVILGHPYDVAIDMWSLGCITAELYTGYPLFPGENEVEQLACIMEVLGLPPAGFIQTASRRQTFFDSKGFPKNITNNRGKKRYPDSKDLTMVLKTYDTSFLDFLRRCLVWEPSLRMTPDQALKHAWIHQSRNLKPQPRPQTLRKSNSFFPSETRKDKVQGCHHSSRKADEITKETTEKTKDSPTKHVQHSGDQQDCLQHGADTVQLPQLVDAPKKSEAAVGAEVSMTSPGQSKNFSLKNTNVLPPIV

MARK3 (human) = MARK3 (human) (UniProt P27448)
NLK (human) = NLK (human) (UniProt Q9UBE8)
PLK2 (human) = PLK2 (human) (UniProt Q9NYY3)
JAK3 JH1 JH2 (human) = JAK3 JH1 JH2 (human) (UniProt P52333)
DAPK3 (human) = DAPK3 (human) (UniProt O43293)
MATK (human) = MATK (human) (UniProt P42679)
PRKG2 (human) = PRKG2 (human) (UniProt Q13237)
EPHA3 (human) = EPHA3 (human) (UniProt P29320)
ACVR1 (human) = ACVR1 (human) (UniProt Q04771)
PAK2 (human) = PAK2 (human) (UniProt Q13177)
CDK1 CCNB1 (human) = CDK1 CCNB1 (human) (UniProt P06493+P14635)
MAPK9 (human) = MAPK9 (human) (UniProt P45984)
TEC (human) = TEC (human) (UniProt P42680)
LCK (human) = LCK (human) (UniProt P06239)
FLT3 (human) = FLT3 (human) (UniProt P36888)
CLK4 (human) = CLK4 (human) (UniProt Q9HAZ1)
AURKA (human) = AURKA (human) (UniProt O14965)
CAMK2G (human) = CAMK2G (human) (UniProt Q13555)
Chain of CAMK2G (human) (Q13555 whole entry, looked up): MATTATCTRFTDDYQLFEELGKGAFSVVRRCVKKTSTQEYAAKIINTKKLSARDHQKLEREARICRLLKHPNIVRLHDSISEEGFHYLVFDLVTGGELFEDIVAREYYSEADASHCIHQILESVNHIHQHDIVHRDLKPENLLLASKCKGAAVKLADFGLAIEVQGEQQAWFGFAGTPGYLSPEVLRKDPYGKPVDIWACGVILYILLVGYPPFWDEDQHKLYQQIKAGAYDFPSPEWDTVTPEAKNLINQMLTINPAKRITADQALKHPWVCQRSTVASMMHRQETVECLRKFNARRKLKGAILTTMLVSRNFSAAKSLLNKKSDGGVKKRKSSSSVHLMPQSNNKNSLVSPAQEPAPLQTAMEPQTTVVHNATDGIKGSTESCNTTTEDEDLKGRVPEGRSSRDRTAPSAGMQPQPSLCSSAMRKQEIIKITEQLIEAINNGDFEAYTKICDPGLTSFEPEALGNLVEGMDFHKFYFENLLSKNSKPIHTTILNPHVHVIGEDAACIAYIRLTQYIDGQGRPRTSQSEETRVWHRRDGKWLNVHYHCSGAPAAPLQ

MAP4K5 (human) = MAP4K5 (human) (UniProt Q9Y4K4)
MAP2K2 (human) = MAP2K2 (human) (UniProt P36507)
Chain of MAP2K2 (human) (P36507 whole entry, looked up): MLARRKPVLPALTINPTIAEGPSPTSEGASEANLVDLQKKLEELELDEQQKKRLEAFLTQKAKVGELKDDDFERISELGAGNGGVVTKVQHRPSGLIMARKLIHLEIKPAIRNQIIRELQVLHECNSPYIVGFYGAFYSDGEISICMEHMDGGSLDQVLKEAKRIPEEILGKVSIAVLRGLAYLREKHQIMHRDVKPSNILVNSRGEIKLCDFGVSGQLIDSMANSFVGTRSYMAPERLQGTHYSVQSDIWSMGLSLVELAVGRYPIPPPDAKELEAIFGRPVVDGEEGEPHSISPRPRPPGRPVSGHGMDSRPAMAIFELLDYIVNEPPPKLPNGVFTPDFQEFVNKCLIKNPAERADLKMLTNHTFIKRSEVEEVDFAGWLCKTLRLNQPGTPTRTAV

EPHA2 (human) = EPHA2 (human) (UniProt P29317)
PRKCD (human) = PRKCD (human) (UniProt Q05655)
CHEK2 (human) = CHEK2 (human) (UniProt O96017)
CAMK4 (human) = CAMK4 (human) (UniProt Q16566)
Chain of CAMK4 (human) (Q16566 whole entry, looked up): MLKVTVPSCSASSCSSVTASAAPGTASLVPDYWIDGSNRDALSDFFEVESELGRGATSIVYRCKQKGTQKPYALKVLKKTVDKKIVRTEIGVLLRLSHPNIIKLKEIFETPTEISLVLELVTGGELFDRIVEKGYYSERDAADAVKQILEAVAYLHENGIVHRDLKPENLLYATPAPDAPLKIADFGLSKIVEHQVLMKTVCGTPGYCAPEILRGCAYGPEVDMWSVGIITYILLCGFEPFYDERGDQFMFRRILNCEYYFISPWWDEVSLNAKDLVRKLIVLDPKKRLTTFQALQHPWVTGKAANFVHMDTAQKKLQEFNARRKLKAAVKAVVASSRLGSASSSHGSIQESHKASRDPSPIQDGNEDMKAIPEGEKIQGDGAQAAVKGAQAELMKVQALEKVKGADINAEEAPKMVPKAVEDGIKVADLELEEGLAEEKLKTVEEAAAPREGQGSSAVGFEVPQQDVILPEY

DAPK2 (human) = DAPK2 (human) (UniProt Q9UIK4)
BLK (human) = BLK (human) (UniProt P51451)
EPHB1 (human) = EPHB1 (human) (UniProt P54762)

Chain of BMX (human) (P51813 whole entry, looked up): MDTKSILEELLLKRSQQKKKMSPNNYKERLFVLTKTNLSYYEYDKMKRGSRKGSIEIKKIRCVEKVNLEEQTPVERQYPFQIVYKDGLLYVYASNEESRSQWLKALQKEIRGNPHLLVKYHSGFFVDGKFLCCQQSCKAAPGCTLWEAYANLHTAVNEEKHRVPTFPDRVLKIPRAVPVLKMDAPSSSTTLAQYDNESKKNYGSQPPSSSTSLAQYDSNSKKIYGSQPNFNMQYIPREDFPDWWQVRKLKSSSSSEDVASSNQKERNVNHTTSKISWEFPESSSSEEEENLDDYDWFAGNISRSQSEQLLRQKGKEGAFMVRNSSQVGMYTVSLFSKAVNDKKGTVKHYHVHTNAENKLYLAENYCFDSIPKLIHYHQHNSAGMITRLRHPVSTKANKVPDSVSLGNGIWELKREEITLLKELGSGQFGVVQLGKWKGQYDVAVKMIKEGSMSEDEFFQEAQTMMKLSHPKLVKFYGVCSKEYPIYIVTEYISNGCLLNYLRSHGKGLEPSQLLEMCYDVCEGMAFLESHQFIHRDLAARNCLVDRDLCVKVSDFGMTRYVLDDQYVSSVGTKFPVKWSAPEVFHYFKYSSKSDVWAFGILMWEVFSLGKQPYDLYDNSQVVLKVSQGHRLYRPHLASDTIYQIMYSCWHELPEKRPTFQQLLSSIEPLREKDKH
Chain of NTRK2 (human) (Q16620 whole entry, looked up): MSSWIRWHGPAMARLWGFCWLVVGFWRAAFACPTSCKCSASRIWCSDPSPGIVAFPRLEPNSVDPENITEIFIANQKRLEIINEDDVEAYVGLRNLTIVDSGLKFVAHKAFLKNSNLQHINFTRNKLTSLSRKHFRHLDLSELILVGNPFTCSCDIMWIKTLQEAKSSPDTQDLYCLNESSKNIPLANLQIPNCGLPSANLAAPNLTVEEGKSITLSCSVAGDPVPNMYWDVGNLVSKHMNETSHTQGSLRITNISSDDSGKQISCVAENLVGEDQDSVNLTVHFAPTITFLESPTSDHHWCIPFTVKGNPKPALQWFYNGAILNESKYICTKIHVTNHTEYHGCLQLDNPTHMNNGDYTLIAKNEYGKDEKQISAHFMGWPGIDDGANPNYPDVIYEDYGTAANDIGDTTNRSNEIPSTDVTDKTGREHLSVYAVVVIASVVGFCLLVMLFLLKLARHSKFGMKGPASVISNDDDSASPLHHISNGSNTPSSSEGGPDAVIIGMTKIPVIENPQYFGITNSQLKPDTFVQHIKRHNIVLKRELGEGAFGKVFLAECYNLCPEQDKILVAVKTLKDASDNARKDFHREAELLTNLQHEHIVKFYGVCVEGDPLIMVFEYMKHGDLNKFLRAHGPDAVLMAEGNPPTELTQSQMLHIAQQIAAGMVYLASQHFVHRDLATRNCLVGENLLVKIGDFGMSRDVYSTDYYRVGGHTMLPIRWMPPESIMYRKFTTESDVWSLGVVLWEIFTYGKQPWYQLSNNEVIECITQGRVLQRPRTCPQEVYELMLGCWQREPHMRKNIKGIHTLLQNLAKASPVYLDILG
Chain of MERTK (human) (Q12866 whole entry, looked up): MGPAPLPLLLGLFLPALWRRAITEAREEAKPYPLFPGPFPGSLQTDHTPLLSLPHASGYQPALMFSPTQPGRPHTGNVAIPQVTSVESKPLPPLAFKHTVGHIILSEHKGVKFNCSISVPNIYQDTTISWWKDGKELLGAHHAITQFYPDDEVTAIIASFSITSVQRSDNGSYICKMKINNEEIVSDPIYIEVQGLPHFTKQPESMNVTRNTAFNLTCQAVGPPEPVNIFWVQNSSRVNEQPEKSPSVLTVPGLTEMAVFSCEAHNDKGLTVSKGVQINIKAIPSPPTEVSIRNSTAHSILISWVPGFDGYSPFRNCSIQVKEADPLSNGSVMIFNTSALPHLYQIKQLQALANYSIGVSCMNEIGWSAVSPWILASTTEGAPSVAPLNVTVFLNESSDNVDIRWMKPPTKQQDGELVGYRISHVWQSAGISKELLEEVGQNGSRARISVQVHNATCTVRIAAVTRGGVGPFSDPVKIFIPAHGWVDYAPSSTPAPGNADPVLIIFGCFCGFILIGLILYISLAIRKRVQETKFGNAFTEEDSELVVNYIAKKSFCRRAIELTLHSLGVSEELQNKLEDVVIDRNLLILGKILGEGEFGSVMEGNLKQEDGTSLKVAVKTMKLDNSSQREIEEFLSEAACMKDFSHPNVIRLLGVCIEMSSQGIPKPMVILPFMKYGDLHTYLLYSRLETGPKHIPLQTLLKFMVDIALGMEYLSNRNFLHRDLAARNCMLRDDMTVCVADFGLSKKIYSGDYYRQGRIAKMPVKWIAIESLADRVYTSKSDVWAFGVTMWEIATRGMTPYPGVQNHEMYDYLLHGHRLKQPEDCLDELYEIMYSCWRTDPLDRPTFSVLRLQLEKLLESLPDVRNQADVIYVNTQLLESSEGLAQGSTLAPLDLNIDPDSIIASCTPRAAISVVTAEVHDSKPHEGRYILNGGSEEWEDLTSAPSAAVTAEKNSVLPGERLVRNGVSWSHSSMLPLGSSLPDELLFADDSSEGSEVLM

## CC#CC(=O)Nc1cc2c(Nc3ccc(F)c(Cl)c3)ncnc2cn1
MERTK (human)
  residual activity: 84.5%
BMX (human)
  residual activity: 2.54%
FLT1 (human)
  residual activity: 100%
ULK2 (human)
  residual activity: 96.7%
NTRK2 (human)
  residual activity: 100%
FGFR2 (human)
  residual activity: 101%
BRSK2 (human)
  residual activity: 93.3%
PAK3 (human)
  residual activity: 99%
PRKCG (human)
  residual activity: 97.2%
GRK5 (human)
  residual activity: 105%
ULK1 (human)
  residual activity: 96.6%
ROCK2 (human)
  residual activity: 98.7%
DSTYK (human)
  residual activity: 91.1%
STK33 (human)
  residual activity: 88.5%
DYRK4 (human)
  residual activity: 98%
MARK3 (human)
  residual activity: 107%
NLK (human)
  residual activity: 99.7%
PLK2 (human)
  residual activity: 103%
JAK3 JH1 JH2 (human)
  residual activity: -0.181%
DAPK3 (human)
  residual activity: 97.8%
MATK (human)
  residual activity: 95.8%
PRKG2 (human)
  residual activity: 105%
EPHA3 (human)
  residual activity: 99.8%
ACVR1 (human)
  residual activity: 105%
PAK2 (human)
  residual activity: 105%
CDK1 CCNB1 (human)
  residual activity: 99.5%
MAPK9 (human)
  residual activity: 91.8%
TEC (human)
  residual activity: 52.1%
LCK (human)
  residual activity: 92.2%
FLT3 (human)
  residual activity: 92.1%
CLK4 (human)
  residual activity: 90.4%
AURKA (human)
  residual activity: 96.5%
CAMK2G (human)
  residual activity: 97.7%
MAP4K5 (human)
  residual activity: 100%
MAP2K2 (human)
  residual activity: 106%
EPHA2 (human)
  residual activity: 103%
PRKCD (human)
  residual activity: 99.8%
CHEK2 (human)
  residual activity: 98.8%
CAMK4 (human)
  residual activity: 97.4%
DAPK2 (human)
  residual activity: 105%
BLK (human)
  residual activity: 21.3%
EPHB1 (human)
  residual activity: 92%

## CCN(CC)CCNC(=O)c1c(C)[nH]c(/C=C2\C(=O)Nc3ccc(Cl)cc32)c1C
MERTK (human)
  residual activity: 11.5%
BMX (human)
  residual activity: 99.3%
FLT1 (human)
  residual activity: 34.4%
ULK2 (human)
  residual activity: 43%
NTRK2 (human)
  residual activity: 8.43%
FGFR2 (human)
  residual activity: 29.3%
BRSK2 (human)
  residual activity: 53.7%
PAK3 (human)
  residual activity: 93.8%
PRKCG (human)
  residual activity: 101%
GRK5 (human)
  residual activity: 82.7%
ULK1 (human)
  residual activity: 13.6%
ROCK2 (human)
  residual activity: 73.5%
DSTYK (human)
  residual activity: 105%
STK33 (human)
  residual activity: 20.6%
DYRK4 (human)
  residual activity: 97.9%
MARK3 (human)
  residual activity: 7.86%
NLK (human)
  residual activity: 101%
PLK2 (human)
  residual activity: 91.2%
JAK3 JH1 JH2 (human)
  residual activity: 39.3%
DAPK3 (human)
  residual activity: 54.3%
MATK (human)
  residual activity: 96.8%
PRKG2 (human)
  residual activity: 82.6%
EPHA3 (human)
  residual activity: 92.5%
ACVR1 (human)
  residual activity: 108%
PAK2 (human)
  residual activity: 92.7%
CDK1 CCNB1 (human)
  residual activity: 109%
MAPK9 (human)
  residual activity: 109%
TEC (human)
  residual activity: 102%
LCK (human)
  residual activity: 11.8%
FLT3 (human)
  residual activity: 0.782%
CLK4 (human)
  residual activity: 16.8%
AURKA (human)
  residual activity: 80.3%
CAMK2G (human)
  residual activity: 8.13%
MAP4K5 (human)
  residual activity: 0.833%
MAP2K2 (human)
  residual activity: 41.4%
EPHA2 (human)
  residual activity: 93.5%
PRKCD (human)
  residual activity: 90.4%
CHEK2 (human)
  residual activity: 6.42%
CAMK4 (human)
  residual activity: 95%
DAPK2 (human)
  residual activity: 86.7%
BLK (human)
  residual activity: 15.8%
EPHB1 (human)
  residual activity: 60.8%

## O=C1NC(=O)C(c2cn(CCCn3ccnc3)c3ccccc23)=C1Nc1ccccc1
MERTK (human)
  residual activity: 86.1%
BMX (human)
  residual activity: 90%
FLT1 (human)
  residual activity: 85.7%
ULK2 (human)
  residual activity: 91.7%
NTRK2 (human)
  residual activity: 85.8%
FGFR2 (human)
  residual activity: 103%
BRSK2 (human)
  residual activity: 93.6%
PAK3 (human)
  residual activity: 100%
PRKCG (human)
  residual activity: 51.6%
GRK5 (human)
  residual activity: 90.9%
ULK1 (human)
  residual activity: 90.1%
ROCK2 (human)
  residual activity: 100%
DSTYK (human)
  residual activity: 102%
STK33 (human)
  residual activity: 82.9%
DYRK4 (human)
  residual activity: 89%
MARK3 (human)
  residual activity: 92.1%
NLK (human)
  residual activity: 97%
PLK2 (human)
  residual activity: 101%
JAK3 JH1 JH2 (human)
  residual activity: 7.97%
DAPK3 (human)
  residual activity: 104%
MATK (human)
  residual activity: 89.8%
PRKG2 (human)
  residual activity: 80.3%
EPHA3 (human)
  residual activity: 102%
ACVR1 (human)
  residual activity: 94.4%
PAK2 (human)
  residual activity: 88.5%
CDK1 CCNB1 (human)
  residual activity: 84.9%
MAPK9 (human)
  residual activity: 101%
TEC (human)
  residual activity: 162%
LCK (human)
  residual activity: 99.4%
FLT3 (human)
  residual activity: 8.21%
CLK4 (human)
  residual activity: 38.9%
AURKA (human)
  residual activity: 78.8%
CAMK2G (human)
  residual activity: 90.9%
MAP4K5 (human)
  residual activity: 66.5%
MAP2K2 (human)
  residual activity: 102%
EPHA2 (human)
  residual activity: 101%
PRKCD (human)
  residual activity: 19.3%
CHEK2 (human)
  residual activity: 88.3%
CAMK4 (human)
  residual activity: 103%
DAPK2 (human)
  residual activity: 104%
BLK (human)
  residual activity: 90.9%
EPHB1 (human)
  residual activity: 102%

## CC(=O)c1ccc(N2CCOCC2)cc1O
MERTK (human)
  residual activity: 101%
BMX (human)
  residual activity: 90.6%
FLT1 (human)
  residual activity: 97.1%
ULK2 (human)
  residual activity: 114%
NTRK2 (human)
  residual activity: 92.1%
FGFR2 (human)
  residual activity: 108%
BRSK2 (human)
  residual activity: 100%
PAK3 (human)
  residual activity: 93.9%
PRKCG (human)
  residual activity: 98.7%
GRK5 (human)
  residual activity: 108%
ULK1 (human)
  residual activity: 94.8%
ROCK2 (human)
  residual activity: 94.7%
DSTYK (human)
  residual activity: 95.3%
STK33 (human)
  residual activity: 109%
DYRK4 (human)
  residual activity: 95.6%
MARK3 (human)
  residual activity: 108%
NLK (human)
  residual activity: 95.6%
PLK2 (human)
  residual activity: 104%
JAK3 JH1 JH2 (human)
  residual activity: 104%
DAPK3 (human)
  residual activity: 98.1%
MATK (human)
  residual activity: 92.1%
PRKG2 (human)
  residual activity: 107%
EPHA3 (human)
  residual activity: 108%
ACVR1 (human)
  residual activity: 107%
PAK2 (human)
  residual activity: 98.8%
CDK1 CCNB1 (human)
  residual activity: 86.8%
MAPK9 (human)
  residual activity: 105%
TEC (human)
  residual activity: 139%
LCK (human)
  residual activity: 100%
FLT3 (human)
  residual activity: 102%
CLK4 (human)
  residual activity: 111%
AURKA (human)
  residual activity: 132%
CAMK2G (human)
  residual activity: 90.2%
MAP4K5 (human)
  residual activity: 102%
MAP2K2 (human)
  residual activity: 99.8%
EPHA2 (human)
  residual activity: 107%
PRKCD (human)
  residual activity: 97.4%
CHEK2 (human)
  residual activity: 104%
CAMK4 (human)
  residual activity: 93%
DAPK2 (human)
  residual activity: 106%
BLK (human)
  residual activity: 102%
EPHB1 (human)
  residual activity: 103%
